According to patent US20220402950A1, “SUBSTITUTED BENZIMIDAZOLES AS PAD4 INHIBITORS” (BRISTOL-MYERS SQUIBB COMPANY, priority 2018, published 2022):

Target: human PAD4 (hPAD4) (Homo sapiens, UniProt Q9UM07)
Experiment: RFMS Human PAD4 Functional Assay
Format: biochemical
Conditions: hPAD4 RFMS IC50, human PAD4, rapid-fire mass spectrum (RFMS) assay; 5 nM hPAD4, 250 μM BAEE
In short: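 RapidFire ESI-MS quantification, normalised to a modified-citrulline internal standard, after phenyl glyoxal (final 4 mM) derivatisation of the TCA-quenched reaction. The enzyme (10 nM) sat 30 min with compound (up to 50 μM final) before 500 μM BAEE (as added) started a 90 min, 37 °C reaction. Buffer: HEPES pH 7.5, 50 μM calcium, 5 μM TPEN.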

Chain of human PAD4 (hPAD4) (Q9UM07 whole entry): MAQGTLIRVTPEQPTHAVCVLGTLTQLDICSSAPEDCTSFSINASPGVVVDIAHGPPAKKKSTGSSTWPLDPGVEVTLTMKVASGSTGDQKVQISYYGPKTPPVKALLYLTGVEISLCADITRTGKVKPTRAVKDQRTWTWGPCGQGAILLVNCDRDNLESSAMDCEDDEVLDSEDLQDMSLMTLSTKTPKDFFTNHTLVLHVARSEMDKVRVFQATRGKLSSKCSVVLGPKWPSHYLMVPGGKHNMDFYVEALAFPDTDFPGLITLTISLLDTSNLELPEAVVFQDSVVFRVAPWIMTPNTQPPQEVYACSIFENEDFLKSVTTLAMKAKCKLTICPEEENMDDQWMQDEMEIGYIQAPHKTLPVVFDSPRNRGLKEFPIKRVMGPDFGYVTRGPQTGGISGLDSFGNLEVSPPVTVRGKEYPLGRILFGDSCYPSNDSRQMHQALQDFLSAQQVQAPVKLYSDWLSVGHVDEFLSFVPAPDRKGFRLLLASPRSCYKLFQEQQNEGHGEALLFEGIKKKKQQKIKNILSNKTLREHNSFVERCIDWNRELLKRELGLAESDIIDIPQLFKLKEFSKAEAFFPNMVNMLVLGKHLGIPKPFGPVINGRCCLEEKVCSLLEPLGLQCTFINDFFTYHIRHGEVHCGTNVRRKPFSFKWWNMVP

| SMILES | IC50 [nM] |
| --- | --- |
| COc1cc(C(=O)N2C[C@H]3CC[C@@H]2[C@@H]3N)cc2nc(-c3cc4cccc(CC5CCOCC5)c4n3CC3CC3)n(C)c12 [Example 31, (1R,4R,7R)-2-{2-[1-(cyclopropylmethyl)-7-[(oxan-4-yl)methyl]-1H-indol-2-yl]-7-methoxy-1-methyl-1H-1,3-benzodiazole-5-carbonyl}-2-azabicyclo[2.2.1]heptan-7-amine] | 198 |
| COc1cc(C(=O)N2CC3CCC2C3N)cc2nc(-c3cc4cccc(NCC5CNC5)c4n3CC3CC3)n(C)c12 (centres unmarked) [Example 159, (7-amino-2-azabicyclo[2.2.1]heptan-2-yl)(2-(7-((azetidin-3-ylmethyl)amino)-1-(cyclopropylmethyl)-1H-indol-2-yl)-7-methoxy-1-methyl-1H-benzo[d]imidazol-5-yl)methanone] | 150 |
| COc1cc(C(=O)N2C[C@H](N)C[C@@H](F)C2)cc2nc(-c3cc4cccc(C5CC(C(=O)N(C)C)C5)c4n3CC3CC3)n(C)c12 (single isomer, unassigned) [Example 118] | 278 |
| COc1cc(C(=O)N2C[C@H]3CC[C@@H]2[C@@H]3N)cc2nc(-c3cc4cccc(-c5cnc(C#N)nc5)c4n3CC3CC3(F)F)n(C)c12 (stereo partly drawn) [Example 149, 5-(2-(5-((1R,4R,7R)-7-amino-2-azabicyclo[2.2.1]heptane-2-carbonyl)-7-methoxy-1-methyl-1H-benzo[d]imidazol-2-yl)-1-((2,2-difluorocyclopropyl)meth-yl)-1H-indol-7-yl)pyrimidine-2-carbonitrile] | 168 |
| CCOC(=O)c1ccccc1-c1cccc2cc(-c3nc4cc(C(=O)N5C[C@H]6CC[C@@H]5[C@@H]6N)cc(OC)c4n3C)n(CC3CC3)c12 [Example 123, ethyl 2-(2-(5-((1R,4R,7R)-7-amino-2-azabicyclo[2.2.1]heptane-2-carbonyl)-7-methoxy-1-methyl-1H-benzo[d]imidazol-2-yl)-1-(cyclopropylmethyl)-1H-indol-7-yl)benzoate] | 84 |
| COc1cc(C(=O)N2C[C@H]3CC[C@@H]2[C@@H]3N)cc2nc(-c3cc4cccc(-c5ccc(O)c(F)c5)c4n3CC3CC3)n(C)c12 [Example 90, 4-(2-{5-[(1R,4R,7R)-7-amino-2-azabicyclo[2.2.1]heptane-2-carbonyl]-7-methoxy-1-methyl-1H-1,3-benzodiazol-2-yl}-1-(cyclopropylmethyl)-1H-indol-7-yl)-2-fluorophenol] | 45 |
| COc1cc(C(=O)N2C[C@H]3CC[C@@H]2[C@@H]3N)cc2nc(-c3cc4cccc(C5CN(S(=O)(=O)c6ccccc6)C5)c4n3CC3CC3)n(C)c12 [Example 83, (1R,4R,7R)-2-(2-{7-[1-(benzenesulfonyl)azetidin-3-yl]-1-(cyclopropylmethyl)-1H-indol-2-yl}-7-methoxy-1-methyl-1H-1,3-benzodiazole-5-carbonyl)-2-azabicyclo[2.2.1]heptan-7-amine] | 123 |
| COc1cc(C(=O)N2C[C@H]3CC[C@@H]2[C@@H]3N)cc2nc(-c3cc4cccc(C5CCC(O)CC5)c4n3CC3CC3)n(C)c12 (stereo partly drawn) [Example 24, 4-(2-{5-[(1R,4R,7R)-7-amino-2-azabicyclo[2.2.1]heptane-2-carbonyl]-7-methoxy-1-methyl-1H-1,3-benzodiazol-2-yl}-1-(cyclopropylmethyl)-1H-indol-7-yl)cyclohexan-1-ol] | 61 |
| COc1cc(C(=O)N2C[C@H](N)C[C@@H](F)C2)cc2nc(-c3cc4cccc(C5CC(C(=O)N6CCCC6)C5)c4n3CC3CC3)n(C)c12 (single isomer, unassigned) [Example 115] | 64 |
| COc1cc(C(=O)N2C[C@H]3CC[C@@H]2[C@@H]3N)cc2nc(-c3cc4cccc(C5CCCN(C(C)=O)C5)c4n3CC3CC3)n(C)c12 (stereo partly drawn) [Example 38, 1-[3-(2-{5-[(1R,4R,7R)-7-amino-2-azabicyclo[2.2.1]heptane-2-carbonyl]-7-methoxy-1-methyl-1H-1,3-benzodiazol-2-yl}-1-(cyclopropylmethyl)-1H-indol-7-yl)piperidin-1-yl]ethan-1-one] | 73 |

Continued, values first:

| IC50 [nM] | SMILES |
| --- | --- |
| 26 | COc1cc(C(=O)N2C[C@H]3CC[C@@H]2[C@@H]3N)cc2nc(-c3cc4cccc(-c5ccc6c(c5)C(O)(C(F)(F)F)C(=O)N6)c4n3CC3CC3)n(C)c12 (stereo partly drawn) [Example 198, 5-(2-(5-((1R,4R,7R)-7-amino-2-azabicyclo[2.2.1]heptane-2-carbonyl)-7-methoxy-1-methyl-1H-benzo[d]imidazol-2-yl)-1-(cyclopropylmethyl)-1H-indol-7-yl)-3-hydroxy-3-(trifluoromethyl)indolin-2-one] |
| 78 | COc1cc(C(=O)N2C[C@H]3CC[C@@H]2[C@@H]3N)cc2nc(-c3cc4cccc(C5CCN(C(=O)C6CC67CC7)CC5)c4n3CC3CC3)n(C)c12 (stereo partly drawn) [Example 224, (4-(2-(5-((1R,4R,7R)-7-amino-2-azabicyclo[2.2.1]heptane-2-carbonyl)-7-methoxy-1-methyl-1H-benzo[d]imidazol-2-yl)-1-(cyclopropylmethyl)-1H-indol-7-yl)piperidin-1-yl)(spiro[2.2]pentan-1-yl)methanone] |
| 42 | COc1cc(C(=O)N2C[C@H]3CC[C@@H]2[C@@H]3N)cc2nc(-c3cc4cccc(Nc5cn(C)nc5C)c4n3CC3CC3)n(C)c12 [Example 173, ((1R,4R,7R)-7-amino-2-azabicyclo[2.2.1]heptan-2-yl)(2-(1-(cyclopropylmethyl)-7-((1,3-dimethyl-1H-pyrazol-4-yl)amino)-1H-indol-2-yl)-7-methoxy-1-methyl-1H-benzo[d]imidazol-5-yl)methanone] |
| 24 | COc1cc(C(=O)N2C[C@H]3CC[C@@H]2[C@@H]3N)cc2nc(-c3cc4cccc(C5CC(C(=O)N6CCC6)C5)c4n3CC3CC3)n(C)c12 (single isomer, unassigned; isomer 1) [Example 202] |
| 27 | COC(=O)N1CCC(c2cccc3cc(-c4nc5cc(C(=O)N6C[C@H]7CC[C@@H]6[C@@H]7N)cc(OC)c5n4C)n(CC4CC4)c23)CC1 [Example 217, methyl 4-(2-(5-((1R,4R,7R)-7-amino-2-azabicyclo[2.2.1]heptane-2-carbonyl)-7-methoxy-1-methyl-1H-benzo[d]imidazol-2-yl)-1-(cyclopropylmethyl)-1H-indol-7-yl)piperidine-1-carboxylate] |
| 76 | COc1cc(C(=O)N2C[C@H]3CC[C@@H]2[C@@H]3N)cc2nc(-c3cc4cccc(Nc5c(C)nn(C)c5C)c4n3CC3CC3(Cl)Cl)n(C)c12 (stereo partly drawn) [Example 176, ((1R,4R,7R)-7-amino-2-azabicyclo[2.2.1]heptan-2-yl)(2-(1-((2,2-dichlorocyclopropyl)meth-yl)-7-((1,3,5-trimethyl-1H-pyrazol-4-yl)amino)-1H-indol-2-yl)-7-methoxy-1-methyl-1H-benzo[d]imidazol-5-yl)methanone] |
| 21 | COC(=O)N1CC(c2cccc3cc(-c4nc5cc(C(=O)N6C[C@H]7CC[C@@H]6[C@@H]7N)cc(OC)c5n4Cc4cnn(C)c4)n(CC4CC4)c23)C1 [Example 213, methyl 3-(2-(5-((1R,4R,7R)-7-amino-2-azabicyclo[2.2.1]heptane-2-carbonyl)-7-methoxy-1-((1-methyl-1H-pyrazol-4-yl)methyl)-1H-benzo[d]imidazol-2-yl)-1-(cyclopropylmethyl)-1H-indol-7-yl)azetidine-1-carboxylate] |
| 53 | COCC(=O)N1CCC(c2cccc3cc(-c4nc5cc(C(=O)N6C[C@H](N)C[C@@H](F)C6)cc(OC)c5n4C)n(CC4CC4)c23)CC1 [Example 226, 1-(4-(2-(5-((3R,5R)-3-amino-5-fluoropiperidine-1-carbonyl)-7-methoxy-1-methyl-1H-benzo[d]imidazol-2-yl)-1-(cyclopropylmethyl)-1H-indol-7-yl)piperidin-1-yl)-2-methoxyethan-1-one] |
| 103 | COc1cc(C(=O)N2CC3CCC2[C@@H]3N)cc2nc(-c3cc4cccc(Nc5cc(C)nc(C)c5)c4n3CC3CC3)n(C)c12 (stereo partly drawn) [Example 161, ((7R)-7-amino-2-azabicyclo[2.2.1]heptan-2-yl)(2-(1-(cyclopropylmethyl)-7-((2,6-dimethylpyridin-4-yl)amino)-1H-indol-2-yl)-7-methoxy-1-methyl-1H-benzo[d]imidazol-5-yl)methanone] |

Same assay, conditions: human PAD4, rapid-fire mass spectrum (RFMS) assay; 5 nM hPAD4, 250 μM BAEE; read-out: hPAD4 RFMS IC50

| IC50 [nM] | SMILES |
| --- | --- |
| 27 | COc1cc(C(=O)N2C[C@H]3CC[C@@H]2[C@@H]3N)cc2nc(-c3cc4cccc(C5CCN(C(=O)N(C)C)CC5)c4n3CC3CC3)n(C)c12 [Example 188, 4-(2-(5-((1R,4R,7R)-7-amino-2-azabicyclo[2.2.1]heptane-2-carbonyl)-7-methoxy-1-methyl-1H-benzo[d]imidazol-2-yl)-1-(cyclopropylmethyl)-1H-indol-7-yl)-N,N-dimethylpiperidine-1-carboxamide] |
| 175 | COc1cc(C(=O)N2C[C@H]3CC[C@@H]2[C@@H]3N)cc2nc(-c3cc4cccc(-n5cc([C@H]6CC[C@H](N)CC6)nn5)c4n3CC3CC3)n(C)c12 [Example 109, (1R,4R,7R)-2-{2-[1-(cyclopropylmethyl)-7-{4-[(1r,4r)-4-aminocyclohexyl]-1H-1,2,3-triazol-1-yl}-1H-indol-2-yl]-7-methoxy-1-methyl-1H-1,3-benzodiazole-5-carbonyl}-2-azabicyclo[2.2.1]heptan-7-amine] |
| 57 | COc1cc(C(=O)N2C[C@H]3CC[C@@H]2[C@@H]3N)cc2nc(-c3cc4cccc(-c5cnn(C)c5)c4n3CC3CC3)n(C)c12 [Example 122, ((1R,4R,7R)-7-amino-2-azabicyclo[2.2.1]heptan-2-yl)(2-(1-(cyclopropylmethyl)-7-(1-methyl-1H-pyrazol-4-yl)-1H-indol-2-yl)-7-methoxy-1-methyl-1H-benzo[d]imidazol-5-yl)methanone] |
| 48 | CNC(=O)C1CC(c2cccc3cc(-c4nc5cc(C(=O)N6C[C@H]7CC[C@@H]6[C@@H]7N)cc(OC)c5n4C)n(CC4CC4)c23)C1 (single isomer, unassigned) [Example 44] |
